Measured values reported in US20110269942A1, “ANTIBODIES MODIFIED WITH HYDROPHOBIC MOLECULE” (DAIICHI SANKYO COMPANY, LIMITED, priority 2007, published 2011).

Experiments:
[1] = system: Jurkat cells; test: Apoptosis-inducing activity of hydrophobic molecule-modified antibodies against Jurkat cells (cell viability from ATP level; method of Test Example 13); format: cell-based, human; details: 72 hr
[2] = system: BxPC-3 cells; test: Apoptosis-inducing activity of hydrophobic molecule-modified antibodies against BxPC-3 cells (cell viability from ATP level); format: cell-based, human
[3] = target: human DR5 (death receptor 5) (human) (UniProt O14763); test: cell-based or functional assay
[4] = system: human malignant melanoma cell strain A375 cells; test: Apoptosis-inducing activity of immunoliposomes against A375 cells (cell viability from ATP level); format: cell-based; details: antibody not conjugated to an immunoliposome
Experimental: (§1) Jurkat cells were counted by a trypan blue staining method, and the concentration was then adjusted to 1×10^5 cells/ml with a DMEM medium (manufactured by Invitrogen Corp.; hereinafter, referred to as a DMEM medium) containing 10% fetal calf serum (manufactured by Hyclone Laboratories, Inc.). […] To this microplate, the cell suspension was inoculated in an amount of 50 μl (5×10^3 cells)/well. The plate was cultured at 37° C. for 72 hr in the presence of 5% carbon dioxide, and the ATP level of each well was measured. […] Then, the supernatant was transferred in an amount of 100 μl/well to a 96-well white microplate (manufactured by Corning Inc.), and luminescence from each well was measured using a luminometer (manufactured by Molecular Devices Corp.). […] The cell viability of each well was calculated according to the following equation:
(§2) Cell viability (%)=(Luminescence intensity of test wells−Average luminescence intensity of background wells)/(Average luminescence intensity of negative control wells−Average luminescence intensity of background wells)×100.
The apoptosis-inducing activities against human malignant melanoma cell strain A375 cells were measured according to the method described in Test Example 1.

[5] = system: human malignant melanoma cell strain A2058 cells; test: Apoptosis-inducing activity of immunoliposomes against A2058 cells (cell viability from ATP level); format: cell-based; details: antibody not conjugated to an immunoliposome
Experimental: as §1, §2
The apoptosis-inducing activities against human malignant melanoma cell strain A2058 cells were measured according to the method described in Test Example 1.

[6] = system: human colon cancer strain COLO 205; test: Antitumor activity against human colon cancer strain COLO 205-transplanted nude mice (tumor volume, rate of tumor growth); format: in vivo, nude mice BALB/cA Jcl-nu; details: 0.33 mg/ml, 0.1 ml per 10 g body weight i.v., Days 8, 11, 13, 15, 18, 20, 22, 25, 27
Experimental: The in-vivo antitumor activity of the immunoliposome prepared in Example 5 was studied. 2×10^6 cells of a human colon cancer strain COLO 205 (purchased from American Type Culture Collection) which was confirmed by quarantine to have no detectable mouse pathogenic microorganisms were hypodermically transplanted to the axillary region of nude mice BALB/cA Jcl-nu (CLEA Japan, Inc.). The immunoliposome of Example 5 was diluted, immediately before its administration, with saline (Otsuka Pharmaceutical Co., Ltd.) to 1 and 0.33 mg/ml in terms of antibody concentrations. Seven days after the transplantation, the administration of the immunoliposome of Example 5 to COLO 205 cancer-bearing mice in which the tumor successfully grafted was started. […]
The major axis and minor axis of the transplanted tumor were measured two to three times a week using an electronic vernier caliper (CD-15C; Mitutoyo Corp.). The tumor volume was determined according to the following calculation formula:
Tumor volume (mm^3)=½×minor axis^2 (mm)×major axis (mm).
Moreover, the rate of tumor growth (mm^3/day) of each individual was calculated, and the statistically significant difference was tested by a Dunnett test using the value. In this context, a P value less than 0.05 was regarded as being a significant difference among groups. […]

[7] = target: T1, human Fas (human, UniProt P25445 26-335); test: cell-based or functional assay
T1 sequence (looked up): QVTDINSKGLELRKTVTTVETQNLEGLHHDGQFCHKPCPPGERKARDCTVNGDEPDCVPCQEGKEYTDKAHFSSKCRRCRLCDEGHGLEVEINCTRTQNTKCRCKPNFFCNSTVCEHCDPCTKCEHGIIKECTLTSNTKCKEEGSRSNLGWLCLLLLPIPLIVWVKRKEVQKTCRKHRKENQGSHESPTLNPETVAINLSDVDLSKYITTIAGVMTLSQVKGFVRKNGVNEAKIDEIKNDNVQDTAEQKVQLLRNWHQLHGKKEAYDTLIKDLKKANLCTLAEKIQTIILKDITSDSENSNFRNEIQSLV

In the case of “Example 34: DSPE-PEG2000-modified hTRA-8 Fullbody (Lys), reaction ratio 1:4”, the “apoptosis-inducing activity compared with that of secondary antibody-cross-linked hTRA-8” value [1] is reported as “stronger”.

In the case of “Example 38: DSPE-PEG10000-modified hTRA-8 Fab′ (Cys)”, the “apoptosis-inducing activity compared with that of secondary antibody-cross-linked hTRA-8” value [1] is reported as “equivalent to or stronger”.

With “Example 46: DSPE-PEG5000-modified hTRA-8 Fullbody (Lys), reaction ratio 1:2” the “apoptosis-inducing activity compared with that of secondary antibody-cross-linked hTRA-8” value [2] was “stronger” and the “apoptosis-inducing activity compared with that of secondary antibody-cross-linked hTRA-8” value [1] was “stronger”.

“Example 54: PEG2000-modified hTRA-8 Fab′ (Cys), hydrophobic molecule-free, water-soluble linker-modified antibody” was tested, and the “apoptosis-inducing activity (in words)” value ([2]; 1000, 100, 10, or 1 ng/ml) was “weak”.

For “Example 33: DSPE-PEG2000-modified hTRA-8 Fullbody (Lys), reaction ratio 1:1”, the “apoptosis-inducing activity compared with that of secondary antibody-cross-linked hTRA-8” value [1] was “stronger”.

With “Example 45: DSPE-PEG3400-modified hTRA-8 Fullbody (Lys)” the “apoptosis-inducing activity compared with that of secondary antibody-cross-linked hTRA-8” value [1] was “stronger”.

“Example 41: DSPE-PEG10000-modified hTRA-8 Fullbody (Lys)” was tested, and the “apoptosis-inducing activity compared with that of secondary antibody-cross-linked hTRA-8” value [1] was “stronger”.

“Example 42: DPPE-PEG2000-modified hTRA-8 Fullbody (Lys)” was tested, and the “apoptosis-inducing activity compared with that of secondary antibody-cross-linked hTRA-8” value [1] was “stronger”.

In the case of “Example 36: DSPE-PEG2000-modified hTRA-8 Fullbody (Cys), reaction ratio 1:10”, the “apoptosis-inducing activity compared with that of secondary antibody-cross-linked hTRA-8” value [1] is reported as “stronger”.

In the case of “Example 40: Chol-PEG5000-modified hTRA-8 Fab′ (Cys)”, the “apoptosis-inducing activity compared with that of secondary antibody-cross-linked hTRA-8” value [1] is reported as “equivalent to or stronger”.

With “Example 32: DSPE-PEG2000-modified hTRA-8 Fab′ (Cys), reaction ratio 1:4” the “apoptosis-inducing activity compared with that of secondary antibody-cross-linked hTRA-8” value [1] was “stronger”.

In the case of “hTRA-8 F(ab′)2 fragment: F(ab′)2 fragment obtained by pepsin digestion of hTRA-8”, the “apoptosis-inducing activity (in words)” value ([2]; 1000, 100, 10, or 1 ng/ml) is reported as “hardly exhibited an apoptosis-inducing activity”.

“Example 53: PEG5000-modified hTRA-8 Fullbody (Lys), hydrophobic molecule-free, water-soluble linker-modified antibody” was tested, and the “apoptosis-inducing activity (in words)” value ([2]; 1000, 100, 10, or 1 ng/ml) was “weak”.

Work on “DSPE-PEG2000-modified MAB631 Fullbody of Example 49 (antibody)” yielded an EC50 (concentration exhibiting 50% cell viability), Jurkat cells, Test Example 20 [3] of 0.025 ng/mL, a cell viability (Jurkat cells) [3] of under 10% and an EC50 relative to Ab, Jurkat cells, Test Example 20 ([3]; scale: fold) of 58.4.

For “Example 39: DPPE-PEG2000-modified hTRA-8 Fab′ (Cys)”, the “apoptosis-inducing activity compared with that of secondary antibody-cross-linked hTRA-8” value [1] was “equivalent to or stronger”.

In the case of “Example 43: Chol-PEG5000-modified hTRA-8 Fullbody (Lys)”, the “apoptosis-inducing activity compared with that of secondary antibody-cross-linked hTRA-8” value [1] is reported as “stronger”.

In the case of “Example 35: DSPE-PEG2000-modified hTRA-8 Fullbody (Lys), reaction ratio 1:12”, the “apoptosis-inducing activity compared with that of secondary antibody-cross-linked hTRA-8” value [1] is reported as “stronger”.

With “hTRA-8 Fab′ fragment: Fab′ obtained by reducing hTRA-8 F(ab′)2 with DTT” the “apoptosis-inducing activity (in words)” value ([2]; 1000, 100, 10, or 1 ng/ml) was “hardly exhibited an apoptosis-inducing activity”.

In the case of “hTRA-8: antibody obtained by humanizing mouse anti-human DR5 antibody TRA-8; heavy chain SEQ ID NO: 1, light chain SEQ ID NO: 2”, the “apoptosis-inducing activity (in words)” value [4] is reported as “weak”, the “apoptosis-inducing activity (in words)” value ([2]; uncross-linked with secondary antibody) is reported as “weak” and the “apoptosis-inducing activity (in words)” value [5] is reported as “weak”.

With “Example 37: DSPE-PEG2000-modified hTRA-8 Fab′ (Cys), reaction ratio 1:1” the “apoptosis-inducing activity compared with that of secondary antibody-cross-linked hTRA-8” value [2] was “stronger” and the “apoptosis-inducing activity compared with that of secondary antibody-cross-linked hTRA-8” value [1] was “equivalent to or stronger”.

“Example 52: PEG2000-modified hTRA-8 Fullbody (Lys), hydrophobic molecule-free, water-soluble linker-modified antibody” was tested, and the “apoptosis-inducing activity (in words)” value ([2]; 1000, 100, 10, or 1 ng/ml) was “weak”.

With “Example 47: DSPE-PEG2000-modified hTRA-8 Fullbody (Lys), reaction ratio 1:1, large scale” the “antitumor activity (rate of tumor growth, Dunnett test)” value [6] was “antitumor activity with a statistically significant difference”.

With “Example 48: DSPE-PEG2000-modified hTRA-8 F(ab′)2 (Lys)” the “apoptosis-inducing activity compared with that of secondary antibody-cross-linked hTRA-8” value [2] was “stronger”.

B1: DSPE-PEG2000-modified hHFE7A Fullbody of Example 50 (antibody, human IgG1, kappa, V domains shown)
VH: QVQLVQSGAEVKKPGASVKVSCKASGYTFTSYWMQWVKQAPGQGLEWMGEIDPSDSYTNYNQKFKGKATLTVDTSTSTAYMELSSLRSEDTAVYYCARNRDYSNNWYFDVWGEGTLVTVSS
VL: EIVLTQSPGTLSLSPGERATLSCKASQSVDYDGDSYMNWYQQKPGQAPRLLIYAASNLESGIPDRFSGSGSGTDFTLTISRLEPEDFAVYYCQQSNEDPRTFGQGTKLEIKR
modifications: DSPE-PEG2000 on thiolated Lys (residue and chain not specified)
B1 was tested, and the “EC50 (concentration exhibiting 50% cell viability), Jurkat cells, Test Example 21” value [7] was 6.94 ng/mL and the “EC50 relative to Ab, Jurkat cells, Test Example 21” value [7] was > 144 fold (control antibody EC50 / modified antibody EC50).

B2: anti-human Fas antibody hHFE7A (humanized HFE7A), Fullbody (antibody, human IgG1, kappa, V domains shown)
VH: QVQLVQSGAEVKKPGASVKVSCKASGYTFTSYWMQWVKQAPGQGLEWMGEIDPSDSYTNYNQKFKGKATLTVDTSTSTAYMELSSLRSEDTAVYYCARNRDYSNNWYFDVWGEGTLVTVSS
VL: EIVLTQSPGTLSLSPGERATLSCKASQSVDYDGDSYMNWYQQKPGQAPRLLIYAASNLESGIPDRFSGSGSGTDFTLTISRLEPEDFAVYYCQQSNEDPRTFGQGTKLEIKR
For B2, the “Cross-linked Antibody EC50, Jurkat cells, Test Example 21” value [7] was over 1000 ng/mL.
